One may read the ED50 as the dose that gives a 50% effect, or the effect in half of the subjects.

Results on 8 molecules are retold here after US4218566A, “11-(2-Hydroxyethylthio) prostenoic acid E and F series derivatives” (American Cyanamid Company, priority 1978, dated 1980).

Each structure is given as a SMILES string. Read-outs that look alike come from different tables or passages of the source.

Holding throughout (type): in vivo
Assay [1] concerns bronchospasms elicited by acetylcholine. Put plainly: bronchodilator activity, (modified) guinea pig Konzett procedure, acetylcholine-induced bronchospasm. Particulars: Cavia porcellus, iv. How it is done:
(§1) Bronchodilator activity is determined in guinea pigs against bronchospasms elicited by intravenous injections of 5-hydroxytryptamine, histamine of acetylcholine by the Konzett procedure. [See J. Lulling, P. Lievens, F. El Sayed and J. Prignot, Arzneimittel-Forschung, 18, 995 (1968)].
(§2) In the Table I which follows, bronchodilator activity for representative compounds of this invention against one or more of the three spasmogenic agents is expressed as an ED50 determined from the results obtained with three logarithemic cumulative intravenous doses.
(§3) The compounds dl-methyl ester of 11-deoxy-11α-(2-hydroxyethylthio)-15α-prostaglandin E2 (hereinafter called Compound I) and dl-methyl ester of 11-deoxy-11α-(2-hydroxyethoxy)-15α-prostaglandin E2 (hereinafter called Compound II) were submitted for testing in the modified Konzett procedure [J. Lulling, P. Lievens, F. El Sayed and J. Prignot, Arzneimittel-Forschung, 18, 995 (1968)].
(§4) The Modified Guinea Pig Konzett Assay measures the protective effects of experimental compounds against induced bronchospasms in guinea pigs.
(§5) Guinea pigs of either sex, weighing 300 to 500 g. are anesthetized by intraperitoneal injection of urethane at 1.5 g./kg. and curarized by intravenous injection of gallamine at 4 mg./kg. They are artificially ventilated through a tracheal cannula. Respiratory volume is adjusted according to the weight of the animal and the rate of the pump, in such a way as to obtain an insufflation pressure of 15-30 cm. of water.
(§6) The two jugular veins are catheterized, the first one being used for curarization and administration of the test compounds, the other one is used for the injection of the spasmogenic agent. Injections are made at selected speeds with a perfusion pump. The intratracheal pressure is measured with a transducer connected to the tracheal cannula and recorded on a polygraph.
(§7) Bronchial spasms are produced by intravenous injection of acetylcholine hydrochloride, histamine dihydrochloride or 5-hydroxy-tryptamine creatinine sulfate. The speed of injection of the spasmogenic solution and its concentration are chosen to give a dose (kept constant throughout the test) which is able to produce a consistant increase in the tracheal pressure. The injections are repeated every 5 minutes throughout the entire test by means of a program controlled automatic infusion syringe. When three successive control bronchoconstrictions of similar intensity are obtained, the animal is considered to be ready for the assay and receives the first dose of the test compound approximately two minutes later.
(§8) The compound being tested is suspended in 15% ethanol and injected through the jugular vein. The injection is repeated twice per animal at 15 minute intervals, so that three doses, in logarithmic progression, are assayed. Three spasms are recorded for each dose. The "bronchodilating" activity of each compound is assayed in at least four guinea pigs for each of the three spasmogenic substances. The amplitude of the three spasms (i.e. the difference between the maximum total tracheal pressure during the spasms and the normal insufflation pressure without spasm) following the administration of the drug are expressed in cm. of water.
(§9) When the average percent of variation (treated vs. control) of the first spasm following any dose of the compound reaches at least -50%, a regression line of the percent of variation versus the dose is computed in a semi-logarithmic system. The ED50 (dose producing a -50% variation) is then calculated. The same determination is made for the second and third spasm following the administration of a dose of the test compound if at some dose the variation percent reaches -50%.

In assay [2] the test system is bronchospasms elicited by histamine. Briefly: bronchodilator activity, (modified) guinea pig Konzett procedure, histamine-induced bronchospasm. Particulars: Cavia porcellus, iv. How it is done:
as §1, §2, §3, §4, §5, §6, §7, §8, §9

The subject of assay [3] is bronchospasms elicited by 5-hydroxytryptamine. Briefly: bronchodilator activity, (modified) guinea pig Konzett procedure, 5-hydroxytryptamine-induced bronchospasm. Particulars: Cavia porcellus, iv. How it is done: as §1, §2, §3, §4, §5, §6, §7, §8, §9
For another assay, the system named is bronchospasms. Briefly: bronchodilator activity overall, guinea pig Konzett assay. Conditions: for Potency (Range 0-4): score. How it is done:
The natural PGE1, PGE2 and PGE3 compounds are potent in causing multiple biological responses, even at low doses. As a bronchodilator, the natural prostaglandins have an inconveniently short duration of activity.
as §1, §2, §3, §4, §5, §6, §7, §8, §9

Setting [4] is: acetylcholine, first line of values for the compound, read-out: ED50 ACH.
The mark [5] stands for this setting: acetylcholine, second line of values for the compound, read-out: ED50 ACH.
The mark [6] stands for this setting: histamine, first line of values for the compound, read-out: ED50 HIST.
The mark [7] stands for this setting: 5-HT, first line of values for the compound, read-out: ED50 5-HT.
[8] abbreviates: histamine, second line of values for the compound, read-out: ED50 HIST.
The mark [9] stands for this setting: 5-HT, second line of values for the compound, read-out: ED50 5-HT.
Where [10] appears, read: 5-HT, third line of values for the compound, read-out: ED50 5-HT.
The mark [11] stands for this setting: spasm 1, read-out: ED50 vs. Acetylcholine Hydrochloride.
[12] abbreviates: spasm 2, read-out: ED50 vs. Acetylcholine Hydrochloride.
Where [13] appears, read: spasm 1, read-out: ED50 vs. Histamine Dihydrochloride.
[14] abbreviates: spasm 2, read-out: ED50 vs. Histamine Dihydrochloride.
Where [15] appears, read: spasm 3, read-out: ED50 vs. Histamine Dihydrochloride.
[16] abbreviates: spasm 1, read-out: ED50 vs. 5-Hydroxytryptamine Creatinine Sulfate.
[17] abbreviates: spasm 2, read-out: ED50 vs. 5-Hydroxytryptamine Creatinine Sulfate.
[18] abbreviates: spasm 3, read-out: ED50 vs. 5-Hydroxytryptamine Creatinine Sulfate.

In the case of `CCCCC[C@H](O)/C=C/[C@H]1[C@@H](SCCO)CC(=O)[C@@H]1C/C=C\CCCC(=O)OC` [methyl nat.-11β(2-hydroxyethylthio)-15α-hydroxy-9-oxo-5-cis,13-trans prostadienoate], the ED50 in assay [1] (setting [4]) amounted to 0.0628 mg/kg; in assay [1] (setting [5]), 0.671 mg/kg; in assay [2] (setting [6]), 0.0455 mg/kg; in assay [3] (setting [7]) it was 0.06 mg/kg. Besides, the “Potency (Range 0-4)” value in the assay with bronchospasms came out at 4.
For the molecule `CCCCC[C@H](O)/C=C/[C@H]1C(SCCO)CC(=O)[C@@H]1C/C=C\CCCC(=O)OC` (stereo partly drawn) [Example 223, Methyl Nat. 15α-hydroxy-9-oxo-11α/β(2-hydroxyethylthio)-5-cis,13-trans-prostadienoate], the ED50 in assay [1] (setting [4]) is 0.0275 mg/kg; in assay [1] (setting [5]) it was 0.391 mg/kg; in assay [2] (setting [6]), 0.00424 mg/kg; in assay [2] (setting [8]) it was 0.0442 mg/kg; in assay [3] (setting [7]), 0.0088 mg/kg. Besides, the “Potency (Range 0-4)” value with bronchospasms worked out at 4.
`CCCCC(C)(O)C/C=C/C1C(SCCO)CC(=O)C1C/C=C\CCCC(=O)O` (stereo not drawn) [Example 225, 11α/β-(2-hydroxyethylthio)-16-hydroxy-16-methyl-9-oxo-5-cis,13-trans-prostadienoic acid]: the median effective dose (ED50) in assay [1] (setting [4]) was found to be 0.034 mg/kg; in assay [2] (setting [6]), 0.02 mg/kg; in assay [2] (setting [8]) it was 0.108 mg/kg; in assay [3] (setting [7]), 0.017 mg/kg; in assay [3] (setting [9]) it was 0.077 mg/kg; in assay [3] (setting [10]), 0.257 mg/kg. Also, the “Potency (Range 0-4)” value in the assay on bronchospasms is reported as 3.
For `CCCCC(O)C/C=C/C1C(SCCO)CC(=O)C1CCCCCCC(=O)O` (stereo not drawn) [Example 226, 11α/β(2-hydroxyethylthio)-16-hydroxy-9-oxo-13-trans-prostenoic acid], the ED50 in assay [1] (setting [4]) was 0.053 mg/kg; in assay [2] (setting [6]), 0.0195 mg/kg; in assay [2] (setting [8]), 0.15 mg/kg; in assay [3] (setting [7]), 0.019 mg/kg; in assay [3] (setting [9]), 0.082 mg/kg; in assay [3] (setting [10]), 0.288 mg/kg. Besides, the “Potency (Range 0-4)” value with bronchospasms was found to be 3.
In the case of `CCCCC[C@H](O)/C=C/[C@H]1[C@H](OCCO)CC(=O)[C@@H]1C/C=C\CCCC(=O)OC` (relative stereo) [Compound II, dl-methyl ester of 11-deoxy-11α-(2-hydroxyethoxy)-15α-prostaglandin E2, reference compound], the ED50 amounted to 0.506 mg/kg in assay [1] (setting [11]); 3.31 mg/kg in assay [1] (setting [12]); 0.152 mg/kg in assay [2] (setting [13]); 0.707 mg/kg in assay [2] (setting [14]); 1.46 mg/kg in assay [2] (setting [15]); 0.119 mg/kg in assay [3] (setting [16]). Further, the ED50 in assay [3] (setting [17]) stood at 0.495 mg/kg; in assay [3] (setting [18]), 1.28 mg/kg.
On to `CCCCC[C@H](O)/C=C/[C@H]1[C@H](SCCO)CC(=O)[C@@H]1C/C=C\CCCC(=O)OC` (relative stereo) [Compound I, dl-methyl ester of 11-deoxy-11α-(2-hydroxyethylthio)-15α-prostaglandin E2], for which the ED50 in assay [1] (setting [11]) amounted to 0.033 mg/kg; in assay [1] (setting [12]), 0.289 mg/kg; in assay [2] (setting [13]), 0.0157 mg/kg; in assay [2] (setting [14]), 0.0671 mg/kg; in assay [2] (setting [15]), 0.452 mg/kg; in assay [3] (setting [16]), 0.0176 mg/kg. The median effective dose (ED50) turned out to be 0.0629 mg/kg in assay [3] (setting [17]) and 0.153 mg/kg in assay [3] (setting [18]). Also, the “bronchodilator potency of Compound I compared with Compound II, statistical analysis” value in the assay on bronchospasms (Compound I vs Compound II) is on record as “significantly more potent than Compound II as a bronchodilator”.
For the molecule `CCCCC[C@H](O)/C=C/[C@H]1C(SCCO)CC(=O)[C@@H]1CCCCCCC(=O)O` (stereo partly drawn) [Example 228, Nat. 11α/β-(2-hydroxyethylthio)-15α-hydroxy-9-oxo-13-transprostenoic acid], the ED50 was 0.011 mg/kg in assay [1] (setting [4]); 0.061 mg/kg in assay [1] (setting [5]); 0.221 mg/kg in assay [1] (acetylcholine, third line of values for the compound, read-out: ED50 ACH.); 0.0047 mg/kg in assay [2] (setting [6]); 0.036 mg/kg in assay [2] (setting [8]); 0.071 mg/kg in assay [2] (histamine, third line of values for the compound, read-out: ED50 HIST.). For the same molecule, the ED50 in assay [3] (setting [7]) amounted to 0.0055 mg/kg; in assay [3] (setting [9]), 0.034 mg/kg; in assay [3] (setting [10]), 0.078 mg/kg. Moreover, the “Potency (Range 0-4)” value in the assay with bronchospasms is 4.
As to `CCCCC[C@H](O)/C=C/[C@H]1[C@H](SCCO)CC(=O)[C@@H]1C/C=C\CCCC(=O)OC` [Methyl Nat.-11α-(2-hydroxyethylthio)-15α-hydroxy-9-oxo-5-cis,13-trans-prostadienoate], the median effective dose (ED50) was determined as 0.0111 mg/kg in assay [1] (setting [4]), 0.00487 mg/kg in assay [2] (setting [6]), 0.0059 mg/kg in assay [3] (setting [7]) and 0.035 mg/kg in assay [3] (setting [9]). The “Potency (Range 0-4)” value with bronchospasms is reported as 4.
